Laboratory results reported in ChEMBL document CHEMBL1123125, “Sulfur-interrupted 8-amino side chain analogues of 4-methyl-5-[m-(trifluoromethyl)phenoxy]primaquine as potential antimalarial agents” (1985).

Tests used:
Assay type in all cases: functional
Plasmodium cynomolgi [1] = test: Cures in Plasmodium cynomolgi infected Rhesus monkeys (Macaca mulatta) at 0.1 mg/kg dose; Cured 0 of 1
Plasmodium cynomolgi [2] = test: Cures in Plasmodium cynomolgi infected Rhesus monkeys (Macaca mulatta) at 1.0 mg/kg dose; Cures 2 of 2
Plasmodium cynomolgi [3] = test: Cures in Plasmodium cynomolgi infected Rhesus monkeys (Macaca mulatta) at 0.316 mg/kg dose; Cured 2 of 2
Mus musculus [4] = test: Evaluated for number of toxic deaths occurring on day 2-5 after infection with Plasmodium berghei in mice (Mus musculus) at dose 640 mg/kg
Mus musculus [5] = test: Evaluated for number of cures against Plasmodium berghei in mice (Mus musculus) (surviving 60 days) at dose 40 mg/kg
Mus musculus [6] = test: Evaluated for number of cures against Plasmodium berghei in mice (Mus musculus) (surviving 60 days) at dose 160 mg/kg
Mus musculus [7] = test: Evaluated for number of cures against Plasmodium berghei in mice (Mus musculus) (surviving 60 days) at dose 320 mg/kg
Mus musculus [8] = test: Evaluated for number of cures against Plasmodium berghei in mice (Mus musculus) (surviving 60 days) at dose 5 mg/kg
Mus musculus [9] = test: Evaluated for number of cures against Plasmodium berghei in mice (Mus musculus) (surviving 60 days) at dose 640 mg/kg
Mus musculus [10] = test: Evaluated for number of cures against Plasmodium berghei in mice (Mus musculus) (surviving 60 days) at dose 20 mg/kg
Mus musculus [11] = test: Evaluated for number of cures against Plasmodium berghei in mice (Mus musculus) (surviving 60 days) at dose 10 mg/kg
Mus musculus [12] = test: Evaluated for number of cures against Plasmodium berghei in mice (Mus musculus) (surviving 60 days) at dose 80 mg/kg
Mus musculus [13] = test: Evaluated for number of toxic deaths occurring on day 2-5 after infection with Plasmodium berghei in mice (Mus musculus) at dose 320 mg/kg
Plasmodium cynomolgi [14] = test: Cures in Plasmodium cynomolgi infected Rhesus monkeys (Macaca mulatta) at 1.0 mg/kg dose; Cured 1 of 2
Mus musculus [15] = test: Evaluated for the change in mean survival time over controls against Plasmodium berghei in mice (Mus musculus) at dose 80 mg/kg
Plasmodium cynomolgi [16] = test: Cures in Plasmodium cynomolgi infected Rhesus monkeys (Macaca mulatta) at 0.1 mg/kg dose; Cured 0 of 2
Plasmodium cynomolgi [17] = test: Cures against Plasmodium cynomolgi infected Rhesus monkeys (Macaca mulatta) at 0.316 mg/kg dose; cured 0 of 2
Mus musculus [18] = test: Evaluated for number of toxic deaths occurring on day 2-5 after infection with Plasmodium berghei in mice (Mus musculus) at dose 160 mg/kg
Mus musculus [19] = test: Evaluated for number of cures against Plasmodium berghei yoelii in rodents at subcutaneous dose 160 mg/kg; 5/15
Mus musculus [20] = test: Evaluated for number of cures against Plasmodium berghei yoelii in mice (Mus musculus) at peroral dose 160 mg/kg; Number of tested 5; settings: route oral
Mus musculus [21] = test: Evaluated for number of toxic deaths against Plasmodium berghei yoelii in rodents at subcutaneous dose of 160 mg/kg
Mus musculus [22] = test: Evaluated for number of toxic deaths against Plasmodium berghei yoelii in mice (Mus musculus) at subcutaneous dose of 40 mg/kg
Mus musculus [23] = test: Evaluated for the change in mean survival time over controls against Plasmodium berghei in mice (Mus musculus) at dose 320 mg/kg
Mus musculus [24] = test: Evaluated for number of cures against Plasmodium berghei yoelii in mice (Mus musculus) at subcutaneous dose 10 mg/kg; 0/15
Mus musculus [25] = test: Evaluated for the change in mean survival time over controls against Plasmodium berghei in mice (Mus musculus) at dose 40 mg/kg
Mus musculus [26] = test: Evaluated for number of cures against Plasmodium berghei yoelii in mice (Mus musculus) at peroral dose 40 mg/kg; 0/5; settings: route oral
Plasmodium cynomolgi [27] = test: Cures against Plasmodium cynomolgi infected Rhesus monkeys (Macaca mulatta) at 1.0 mg/kg; cured 0 of 2
Mus musculus [28] = test: Evaluated for the change in mean survival time over controls against Plasmodium berghei in mice (Mus musculus) at dose 160 mg/kg
Plasmodium cynomolgi [29] = test: Number of relapses in Plasmodium cynomolgi infected Rhesus monkeys (Macaca mulatta) at 1.0 mg/kg dose
Mus musculus [30] = test: Evaluated for number of cures against Plasmodium berghei yoelii in mice (Mus musculus) at subcutaneous dose 40 mg/kg; 1/15
Plasmodium cynomolgi [31] = test: Relapses in Plasmodium cynomolgi infected Rhesus monkeys (Macaca mulatta) at 0.1 mg/kg dose
Mus musculus [32] = test: Evaluated for the change in mean survival time over controls against Plasmodium berghei in mice (Mus musculus) at dose 640 mg/kg
Mus musculus [33] = test: Evaluated for number of cures against Plasmodium berghei yoelii in rodents at peroral dose 10 mg/kg; 0/5; settings: route oral
Mus musculus [34] = test: Evaluated for number of cures against Plasmodium berghei yoelii in rodents at subcutaneous dose 10 mg/kg; 5/30
Mus musculus [35] = test: Evaluated for number of cures against Plasmodium berghei yoelii in rodents at peroral dose 40 mg/kg; 7/20; settings: route oral
Mus musculus [36] = test: Evaluated for number of cures against Plasmodium berghei yoelii in rodents at peroral dose 2.5 mg/kg; 0/5; settings: route oral
Mus musculus [37] = test: Evaluated for number of cures against Plasmodium berghei yoelii in rodents at subcutaneous dose 2.5 mg/kg; 0/5
Mus musculus [38] = test: Evaluated for the change in mean survival time over controls against Plasmodium berghei in mice (Mus musculus) at dose 20 mg/kg
Mus musculus [39] = test: Evaluated for number of cures against Plasmodium berghei yoelii in mice (Mus musculus) at peroral dose 160 mg/kg; 19/20; settings: route oral
Plasmodium cynomolgi [40] = test: Number of relapses in Plasmodium cynomolgi infected Rhesus monkeys (Macaca mulatta) at 0.316 mg/kg dose
Mus musculus [41] = test: Evaluated for number of cures against Plasmodium berghei yoelii in rodents at subcutaneous dose 40 mg/kg; 7/30
Mus musculus [42] = test: Evaluated for number of cures against Plasmodium berghei yoelii in rodents at peroral dose 10 mg/kg; 2/20; settings: route oral
Mus musculus [43] = test: Evaluated for number of cures against Plasmodium berghei yoelii in rodents at subcutaneous dose 160 mg/kg; 8/30

SMILES	No. of deaths (Mus musculus [4])	No. of cures (Mus musculus [7])	No. of cures (Mus musculus [9])	No. of cures (Plasmodium cynomolgi [14])	Change in MST (Mus musculus [15])	No. of cures (Plasmodium cynomolgi [16])	No. of cures (Plasmodium cynomolgi [17])	No. of deaths (Mus musculus [21])	No. of deaths (Mus musculus [22])	Change in MST (Mus musculus [23])	Change in MST (Mus musculus [25])	Change in MST (Mus musculus [28])	No. of relapses (Plasmodium cynomolgi [29])	No. of relapses (Plasmodium cynomolgi [31])	Change in MST (Mus musculus [32])	other results
COc1cc(NC(C)CCCN)c2nccc(C)c2c1Oc1cccc(C(F)(F)F)c1 (configuration not stated)	4	5	1	–	–	–	–	–	–	–	–	–	–	–	–	No. of cures (Plasmodium cynomolgi [1]): 0; No. of cures (Plasmodium cynomolgi [2]): 2; No. of cures (Plasmodium cynomolgi [3]): 2; No. of cures (Mus musculus [5]): 5; No. of cures (Mus musculus [6]): 5; No. of cures (Mus musculus [8]): 1; No. of cures (Mus musculus [10]): 5; No. of cures (Mus musculus [11]): 3; No. of cures (Mus musculus [12]): 5
COc1cc(NC(C)CCCN)c2ncccc2c1 (configuration not stated) [PRIMAQUINE]	5	–	–	1	9	0	0	–	–	–	–	–	–	–	–	No. of deaths (Mus musculus [13]): 5; No. of deaths (Mus musculus [18]): 2
COc1cc(NCC(C)SCCN)c2nccc(C)c2c1Oc1cccc(C(F)(F)F)c1 (configuration not stated)	–	1	–	–	1.5	0	–	1	1	6.5	0.5	4.5	7	7	9.7	No. of cures (Mus musculus [19]): 5; No. of cures (Mus musculus [20]): 0; No. of cures (Mus musculus [24]): 0; No. of cures (Mus musculus [26]): 0; No. of cures (Plasmodium cynomolgi [27]): 0; No. of cures (Mus musculus [30]): 1; No. of cures (Mus musculus [33]): 0
COc1cc(NC(C)CSCCN)c2nccc(C)c2c1Oc1cccc(C(F)(F)F)c1 (configuration not stated)	1	1	2	1	6.6	0	0	3	2	9.6	2	6.8	18	8	12.3	No. of cures (Mus musculus [34]): 5; No. of cures (Mus musculus [35]): 7; No. of cures (Mus musculus [36]): 0; No. of cures (Mus musculus [37]): 0; Change in MST (Mus musculus [38]): 3; No. of cures (Mus musculus [39]): 19; No. of relapses (Plasmodium cynomolgi [40]): 28; No. of cures (Mus musculus [41]): 7; No. of cures (Mus musculus [42]): 2; No. of cures (Mus musculus [43]): 8
